Laboratory results from patent US4160097A, “1-(2-Phenylureylene)imidazoles” (Westwind Pharmaceuticals, Inc., priority 1977, dated 1979).
In brackets after ≈: the same amount, converted by molar mass. Where two headings read alike, the source gives them in different places.

Experiments:
[1] = system: carrageenan rat paw edema; test: Rat Paw Edema Assay, Local Administration; format: in vivo; conditions: read-out: % Difference from Control; for change in vivo at 100 mg/kg: local administration; for change in vivo at 0.001 mg: 1 μg; for change in vivo at 0.001 mg / change in vivo at 0.01 mg / change in vivo at 0.1 mg: injected directly into paw; for change in vivo at 0.01 mg: 10 μg; for change in vivo at 0.1 mg: 100 μg
Procedure: (§1) The anti-inflammatory activity of representative compounds of this invention was determined by the rat paw edema assay both by local administration (Table XI below) and by oral dosing (Table XII below). For the oral dosing, the procedure of C. A. Winter, E. A. Risley and G. W. Nuss, Proc. Soc. Exp. Biol. Med. III, 544 (1962) was employed with measurement taken four hours after the drug was administered. The local administration tests were carried out similarly except the irritant (carrageenan) and the test compound were injected simultaneously at time zero.
(§2) Tables XI and XII report the anti-inflammatory activity of the compounds tested as % difference in the edema or swelling as compared with the control. These Tables also give the response in many instances of more than one dose level of the same drug.

[2] = system: carrageenan rat paw edema; test: Rat Paw Edema Assay, Oral Dosing; format: in vivo; conditions: 4 h, four hours after drug, read-out: % Difference from Control; for change in vivo at 100 mg/kg: 100 mg/kg oral; for change in vivo at 400 mg/kg: 400 mg/kg oral
Procedure: as §1, §2

[3] = system: Trichophyton mentagrophytes; test: Antifungal activity, agar dilution method; format: cell-based, Trichophyton mentagrophytes (ATCC No. 8757 and 9129); conditions: T. mentagrophytes, read-out: Parts Per Million Inhibitions of T. mentagrophytes
Procedure: (§3) various compounds of this invention display antifungal and anti-yeast activity.
(§4) In Table IX below are listed the antifungal activity of a number of compounds encompassed in the present invention. These were determined by the agar dilution method as described in Chapters 2 and 3 of Methods in Microbiology, Vol. 7B, edited by J. R. Norris and D. W. Ribbons, Academic Press, New York, 1972.

[4] = system: Trichophyton rubrum; test: Antifungal activity, agar dilution method; format: cell-based, Trichophyton rubrum (ATCC No. 10218 and 14001); conditions: T. rubrum, read-out: Parts Per Million Inhibitions of T. rubrum
Procedure: as §3, §4

[5] = system: Trichophyton ajelloi; test: Antifungal activity, agar dilution method; format: cell-based; conditions: Arthroderma uncinatum, T. ajelloi, read-out: Parts Per Million Inhibitions of T. ajelloi
Procedure: as §3, §4

[6] = system: humeral or antibody response; test: hemolysin test in mice; format: in vivo; conditions: Mus musculus, sc, dose reducing antibody activity by 50% vs control, read-out: HL(ED50)
[7] = system: cell-mediated immune response to the antigen, Mycobacterium tuberculosis H37Ra; test: delayed hypersensitivity test; format: in vivo, mouse; conditions: Mus musculus, sc, read-out: D.H.S. (ED60)
Procedure: The immunosuppressant activities of the compounds of this invention were determined via the hemolysin test in mice and by the delayed hypersensitivity test. The hemolysin test used is that described in Methods in Immunology, edited by D. H. Campbell et al, W. A. Benjamin, New York 1963 pages 172-175, and measures humeral or antibody response. The delayed hypersensitivity test measures the effect of a test compound on the ability of a subject mouse to mount a cell-mediated immune response to the antigen, Mycobacterium tuberculosis H37Ra. The mouse is sensitized to the antigen by subcutaneous administration in the base of the tail. The development of the delayed hypersensitivity response may be measured at any time beginning six days after sensitization but is usually done on the ninth day as follows: The right hind paw is injected with purified protein derivative (tuberculin) while the left hind paw (control) receives physiological saline. Both paw volumes are measured after twenty-four hours and significant increase in the volume of the right hand paw is taken as a measure of an effective delayed hypersensitivity response. All compounds were administered by the subcutaneous route.
The D.H.S. (ED60) mg./kg. s.c. value appearing in column 3 is an expression of the effectiveness of the drug in reducing the edema that accompanies the cell-mediated immune response. It is a measure of the number of milligrams per kilogram of body weight of the drug administered subcutaneously which is required to reduce the edema of the cell-mediated immune response by 60% when compared to the control.

[8] = mice, dose reducing edema of cell-mediated immune response by 60% vs control

Row | Compound | change in vivo at 100 mg/kg [2] [%] | MIC [3] [µg/mL] | MIC [4] [µg/mL] | MIC [5] [µg/mL] | also measured
1 | CCCCCCC(=O)Nc1ccccc1-n1ccnc1 [Compound 7] | -52 |  |  |  | change in vivo at 100 mg/kg [1]: -22%
2 | CCCCCCCC(=O)Nc1ccccc1-n1ccnc1 [Compound 8] | -22 | 8 (≈ 28 µM) | 8 (≈ 28 µM) |  | change in vivo at 400 mg/kg [2]: -13%
3 | CCCCCCCCC(=O)Nc1ccccc1-n1ccnc1 [Compound 9] |  | 16 (≈ 53.4 µM) | 16 (≈ 53.4 µM) |  | 
4 | CCCCCCCCCC(=O)Nc1ccccc1-n1ccnc1 [Compound 10] | -30 | 16 (≈ 51 µM) | 16 (≈ 51 µM) |  | 
5 | C=CCCCCCCCCC(=O)Nc1ccccc1-n1ccnc1 [Compound 16] |  | 4 (≈ 12.3 µM) | 2 (≈ 6.15 µM) |  | 
6 | O=C(C=Cc1ccccc1)Nc1ccccc1-n1ccnc1 [Compound 20] | -59 | 100 (≈ 346 µM) |  | 100 (≈ 346 µM) | 
7 | Cc1ccccc1C(=O)Nc1ccccc1-n1ccnc1 [Compound 35] | -50 | 16 (≈ 57.7 µM) |  | 100 (≈ 361 µM) | 
8 | CC(C)(C)c1ccc(C(=O)Nc2ccccc2-n2ccnc2)cc1 [Compound 39] | -50 | 100 (≈ 313 µM) |  | 100 (≈ 313 µM) | 
9 | O=C(Nc1ccccc1-n1ccnc1)c1ccccc1Cl [Compound 49] | -35 |  |  |  | change in vivo at 100 mg/kg [1]: -35%
10 | O=C(Nc1ccccc1-n1ccnc1)c1ccc(Cl)cc1 [Compound 51] | -57 |  |  |  | change in vivo at 100 mg/kg [1]: -57%
11 | COc1ccccc1C(=O)Nc1ccccc1-n1ccnc1 [Compound 58] |  | 100 (≈ 341 µM) | 100 (≈ 341 µM) | 100 (≈ 341 µM) | 
12 | O=C(Nc1ccccc1-n1ccnc1)c1ccc2ccccc2c1 [Compound 62] |  | 100 (≈ 319 µM) | 100 (≈ 319 µM) | 100 (≈ 319 µM) | 
13 | CCCc1nc2ccccc2n2ccnc12 [Compound 112] | -17 | 128 (≈ 606 µM) | 64 (≈ 303 µM) |  | change in vivo at 400 mg/kg [2]: -68%
14 | CCCCCc1nc2ccccc2n2ccnc12 [Compound 114] | -61 | 16 (≈ 66.9 µM) | 1 (≈ 4.18 µM) |  | change in vivo at 0.001 mg [1]: 68.2%; change in vivo at 0.01 mg [1]: -30%; change in vivo at 0.1 mg [1]: -132%
15 | CCCCCCCc1nc2ccccc2n2ccnc12 [Compound 116] | 104 | 16 (≈ 59.8 µM) | 16 (≈ 59.8 µM) |  | ED50 [6]: > 50 mg/kg; ED60 [7, 8]: 56 mg/kg; change in vivo at 400 mg/kg [2]: -18%
16 | CCCCCCCCCc1nc2ccccc2n2ccnc12 [Compound 118] |  | 256 (≈ 867 µM) | 4 (≈ 13.5 µM) |  | ED50 [6]: > 50 mg/kg; ED60 [7, 8]: 43 mg/kg
17 | FC(F)(F)c1nc2ccccc2n2ccnc12 [Compound 122] | -61 |  | 32 (≈ 135 µM) |  | change in vivo at 100 mg/kg [1]: -61%
18 | c1ccc(OCc2nc3ccccc3n3ccnc23)cc1 [Compound 126] |  | 100 (≈ 363 µM) | 100 (≈ 363 µM) | 100 (≈ 363 µM) | ED50 [6]: 35 mg/kg; ED60 [7, 8]: > 50 mg/kg
19 | C(=Cc1nc2ccccc2n2ccnc12)c1ccccc1 [Compound 127] |  | 16 (≈ 59 µM) | 16 (≈ 59 µM) |  | ED50 [6]: > 50 mg/kg; ED60 [7, 8]: 36 mg/kg
20 | c1ccc2c(c1)nc(C1CCCCC1)c1nccn12 [Compound 129] | -30 | 16 (≈ 63.7 µM) | 8 (≈ 31.8 µM) | 16 (≈ 63.7 µM) | 
21 | Cc1ccccc1-c1nc2ccccc2n2ccnc12 [Compound 132] | -76 | 100 (≈ 386 µM) |  | 100 (≈ 386 µM) | 
22 | Cc1ccc(-c2nc3ccccc3n3ccnc23)cc1 [Compound 134] | -43 | 16 (≈ 61.7 µM) |  | 100 (≈ 386 µM) | ED50 [6]: 0.5 mg/kg; ED60 [7, 8]: 7.2 mg/kg
23 | c1ccc(-c2ccc(-c3nc4ccccc4n4ccnc34)cc2)cc1 [Compound 135] |  | 100 (≈ 311 µM) |  | 100 (≈ 311 µM) | ED50 [6]: 0.033 mg/kg; ED60 [7, 8]: 0.22 mg/kg

Row | Compound | change in vivo at 100 mg/kg [2] [%] | MIC [3] [µg/mL] | MIC [4] [µg/mL] | MIC [5] [µg/mL] | also measured
24 | CC(C)(C)c1ccc(-c2nc3ccccc3n3ccnc23)cc1 [Compound 137] | -26 | 100 (≈ 332 µM) |  | 100 (≈ 332 µM) | ED50 [6]: < 0.125 mg/kg; ED60 [7, 8]: 3.2 mg/kg
25 | COc1ccc(-c2nc3ccccc3n3ccnc23)cc1 [Compound 138] |  | 100 (≈ 363 µM) |  | 100 (≈ 363 µM) | ED50 [6]: 0.72 mg/kg; ED60 [7, 8]: 27 mg/kg
26 | Clc1ccc(-c2nc3ccccc3n3ccnc23)cc1 [Compound 140] | -35 |  | < 0.5 |  | ED50 [6]: 0.26 mg/kg; ED60 [7, 8]: 1.15 mg/kg; change in vivo at 100 mg/kg [1]: -78%
27 | Brc1ccccc1-c1nc2ccccc2n2ccnc12 [Compound 145] |  | 100 (≈ 308 µM) | 100 (≈ 308 µM) | 100 (≈ 308 µM) | 
28 | O=C(O)c1ccccc1-c1nc2ccccc2n2ccnc12 [Compound 148] | -52 |  |  |  | change in vivo at 0.001 mg [1]: -32.6%; change in vivo at 0.01 mg [1]: -53.5%; change in vivo at 0.1 mg [1]: -14.3%; change in vivo at 100 mg/kg [1]: -39%
29 | O=[N+]([O-])c1ccc(-c2nc3ccccc3n3ccnc23)cc1 [Compound 151] |  |  | 1 (≈ 3.44 µM) |  | ED50 [6]: 0.3 mg/kg; ED60 [7, 8]: 1.52 mg/kg
30 | COc1cccc(-c2nc3ccccc3n3ccnc23)c1 [Compound 159] |  | 100 (≈ 363 µM) | 100 (≈ 363 µM) | 100 (≈ 363 µM) | ED50 [6]: 3 mg/kg; ED60 [7, 8]: 27 mg/kg
31 | c1ccc2c(-c3nc4ccccc4n4ccnc34)cccc2c1 [Compound 160] |  | 100 (≈ 339 µM) | 100 (≈ 339 µM) | 100 (≈ 339 µM) | 
32 | CC(=O)Oc1ccc(-c2nc3ccccc3n3ccnc23)cc1 [Compound 163] |  | 100 (≈ 330 µM) | 100 (≈ 330 µM) | 100 (≈ 330 µM) | 
33 | CCCC(=O)Oc1ccc(-c2nc3ccccc3n3ccnc23)cc1 [Compound 164] |  | 100 (≈ 302 µM) | 100 (≈ 302 µM) | 100 (≈ 302 µM) | 
34 | CCCCCCCCCC(=O)Oc1ccc(-c2nc3ccccc3n3ccnc23)cc1 [Compound 165] |  | 100 (≈ 241 µM) | 100 (≈ 241 µM) | 100 (≈ 241 µM) | 
35 | c1ccc2c(c1)nc(NC1CCCCC1)c1nccn12 [Compound 167] |  | 100 (≈ 375 µM) | 100 (≈ 375 µM) | 100 (≈ 375 µM) | 
36 | CCCCNc1nc2ccccc2n2ccnc12 [Compound 168] |  | 100 (≈ 416 µM) | 100 (≈ 416 µM) | 100 (≈ 416 µM) | 
37 | CCCNc1nc2ccccc2n2ccnc12 [Compound 169] |  | 100 (≈ 442 µM) | 100 (≈ 442 µM) | 100 (≈ 442 µM) | ED50 [6]: 46 mg/kg; ED60 [7]: > 50 mg/kg
38 | Fc1ccccc1-c1nc2ccccc2n2ccnc12 [Compound 173] |  | 100 (≈ 380 µM) | 100 (≈ 380 µM) | 100 (≈ 380 µM) | ED60 [7, 8]: 40 mg/kg
39 | Clc1cccc(Nc2nc3ccccc3n3ccnc23)c1 [Compound 179] |  | 100 (≈ 339 µM) | 100 (≈ 339 µM) | 100 (≈ 339 µM) | 
40 | Fc1ccc(Nc2nc3ccccc3n3ccnc23)cc1 [Compound 182] |  |  | 100 (≈ 359 µM) |  | ED50 [6]: 1.1 mg/kg
41 | COc1ccccc1Nc1nc2ccccc2n2ccnc12 [Compound 184] |  | 100 (≈ 344 µM) | 100 (≈ 344 µM) | 100 (≈ 344 µM) | 
42 | COc1cccc(Nc2nc3ccccc3n3ccnc23)c1 [Compound 185] |  | 100 (≈ 344 µM) | 100 (≈ 344 µM) | 100 (≈ 344 µM) | 
43 | COc1ccc(Nc2nc3ccccc3n3ccnc23)cc1 [Compound 186] |  | 100 (≈ 344 µM) | 100 (≈ 344 µM) | 100 (≈ 344 µM) | 
44 | O=[N+]([O-])c1ccccc1Nc1nc2ccccc2n2ccnc12 [Compound 187] |  |  | 100 (≈ 328 µM) | 100 (≈ 328 µM) | 
45 | O=[N+]([O-])c1ccc(Nc2nc3ccccc3n3ccnc23)cc1 [Compound 189] |  |  | 100 (≈ 328 µM) | 100 (≈ 328 µM) | 
